Test results from patent US20250333407A1, “Compounds and Their Use for Treatment of Hemoglobinopathies” (Bristol-Myers Squibb Company, priority 2024, published 2025).

Assays:
Assay type in all cases: cell-based
WIZ = biological target: T1, WIZ (Homo sapiens, UniProt O95785+Q96SW2); assay: HUDEP-2 WIZ HiBiT degradation assay; settings: HiBiT-tagged WIZ degradation in HUDEP-2 cells, 24 hours of treatment; read-out: WIZ EC50
T1 construct: HUDEP-2 cells engineered to express a HiBiT tag in either the WIZ (Widely interspaced zinc finger) or ZBTB7A
Summary of the method: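 HiBiT-tagged HUDEP-2 cells at 1.0×10^6 cells/ml in SFEM II with SCF, EPO, dexamethasone and doxycycline, treated 24 h at 37 °C with a 10-point series ([…]). Luminescence after HiBiT lytic detection, normalized to DMSO; EC50 and Y-min from fitted curves.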

HbF = HbF HiBiT induction assay in HUDEP-2 cells; settings: HUDEP-2 cells with HiBiT tag in HBG1/2, 72 hours of treatment; area under the dose response curve, higher AUC = greater HbF induction
Summary of the method: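 HUDEP-2 cells carrying a HiBiT tag on HBG1/2 were exposed to compounds for 72 h at 37° C, 5% CO2, in IMDM with EPO, hSCF, DOX, transferrin, insulin, heparin and 5% human plasma. HiBiT luminescence was read after lytic detection; HbF induction is expressed as dose-response AUC, alongside EC50 and Ymax.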

ZBTB7A = biological target: T2, ZBTB7A (Homo sapiens, UniProt O95365+Q96SW2); assay: HUDEP-2 ZBTB7A HiBiT degradation assay; settings: HiBiT-tagged ZBTB7A degradation in HUDEP-2 cells, 24 hours of treatment; read-out: ZBTB7A EC50
T2 construct: HUDEP-2 cells engineered to express a HiBiT tag in either the WIZ (Widely interspaced zinc finger) or ZBTB7A
Summary of the method: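 HiBiT-tagged HUDEP-2 cells were pre-cultured 48 h in IMDM with EPO, SCF, doxycycline and 5% human plasma, then exposed to compounds at 1.0×10^6 cells/ml for 24 h at 37 °C. Nano-Glo HiBiT lytic luminescence, normalised to DMSO over 10 concentrations, gave EC50 and Y-min.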

T2 sequence (O95365 whole entry): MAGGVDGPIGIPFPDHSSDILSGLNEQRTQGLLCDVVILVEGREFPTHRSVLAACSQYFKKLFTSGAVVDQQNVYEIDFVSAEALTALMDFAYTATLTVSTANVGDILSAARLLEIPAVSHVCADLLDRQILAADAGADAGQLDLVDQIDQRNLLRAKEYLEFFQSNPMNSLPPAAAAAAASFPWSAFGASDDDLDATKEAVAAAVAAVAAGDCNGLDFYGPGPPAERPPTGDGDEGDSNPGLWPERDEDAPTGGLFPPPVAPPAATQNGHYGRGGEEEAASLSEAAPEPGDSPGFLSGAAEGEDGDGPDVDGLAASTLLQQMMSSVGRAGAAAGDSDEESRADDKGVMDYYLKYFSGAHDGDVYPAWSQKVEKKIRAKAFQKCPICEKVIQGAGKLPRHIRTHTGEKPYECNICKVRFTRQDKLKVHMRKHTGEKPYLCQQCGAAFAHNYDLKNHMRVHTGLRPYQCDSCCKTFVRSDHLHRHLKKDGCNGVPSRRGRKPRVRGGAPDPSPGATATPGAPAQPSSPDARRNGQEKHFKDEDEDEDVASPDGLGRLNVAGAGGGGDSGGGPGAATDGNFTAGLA
T2 sequence (Q96SW2 whole entry): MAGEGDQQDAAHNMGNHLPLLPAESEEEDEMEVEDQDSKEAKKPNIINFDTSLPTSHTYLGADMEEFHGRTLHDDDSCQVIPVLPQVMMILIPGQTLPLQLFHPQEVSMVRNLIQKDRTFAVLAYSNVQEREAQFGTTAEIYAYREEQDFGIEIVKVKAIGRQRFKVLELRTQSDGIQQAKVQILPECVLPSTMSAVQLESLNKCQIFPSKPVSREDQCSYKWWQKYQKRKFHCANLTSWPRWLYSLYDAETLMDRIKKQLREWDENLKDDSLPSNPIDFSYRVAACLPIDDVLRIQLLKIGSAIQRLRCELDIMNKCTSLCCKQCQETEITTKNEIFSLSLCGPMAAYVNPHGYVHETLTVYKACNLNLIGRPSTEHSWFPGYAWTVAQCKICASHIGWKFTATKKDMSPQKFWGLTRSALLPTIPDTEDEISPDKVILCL
T2 sequence (Q16531 whole entry partner): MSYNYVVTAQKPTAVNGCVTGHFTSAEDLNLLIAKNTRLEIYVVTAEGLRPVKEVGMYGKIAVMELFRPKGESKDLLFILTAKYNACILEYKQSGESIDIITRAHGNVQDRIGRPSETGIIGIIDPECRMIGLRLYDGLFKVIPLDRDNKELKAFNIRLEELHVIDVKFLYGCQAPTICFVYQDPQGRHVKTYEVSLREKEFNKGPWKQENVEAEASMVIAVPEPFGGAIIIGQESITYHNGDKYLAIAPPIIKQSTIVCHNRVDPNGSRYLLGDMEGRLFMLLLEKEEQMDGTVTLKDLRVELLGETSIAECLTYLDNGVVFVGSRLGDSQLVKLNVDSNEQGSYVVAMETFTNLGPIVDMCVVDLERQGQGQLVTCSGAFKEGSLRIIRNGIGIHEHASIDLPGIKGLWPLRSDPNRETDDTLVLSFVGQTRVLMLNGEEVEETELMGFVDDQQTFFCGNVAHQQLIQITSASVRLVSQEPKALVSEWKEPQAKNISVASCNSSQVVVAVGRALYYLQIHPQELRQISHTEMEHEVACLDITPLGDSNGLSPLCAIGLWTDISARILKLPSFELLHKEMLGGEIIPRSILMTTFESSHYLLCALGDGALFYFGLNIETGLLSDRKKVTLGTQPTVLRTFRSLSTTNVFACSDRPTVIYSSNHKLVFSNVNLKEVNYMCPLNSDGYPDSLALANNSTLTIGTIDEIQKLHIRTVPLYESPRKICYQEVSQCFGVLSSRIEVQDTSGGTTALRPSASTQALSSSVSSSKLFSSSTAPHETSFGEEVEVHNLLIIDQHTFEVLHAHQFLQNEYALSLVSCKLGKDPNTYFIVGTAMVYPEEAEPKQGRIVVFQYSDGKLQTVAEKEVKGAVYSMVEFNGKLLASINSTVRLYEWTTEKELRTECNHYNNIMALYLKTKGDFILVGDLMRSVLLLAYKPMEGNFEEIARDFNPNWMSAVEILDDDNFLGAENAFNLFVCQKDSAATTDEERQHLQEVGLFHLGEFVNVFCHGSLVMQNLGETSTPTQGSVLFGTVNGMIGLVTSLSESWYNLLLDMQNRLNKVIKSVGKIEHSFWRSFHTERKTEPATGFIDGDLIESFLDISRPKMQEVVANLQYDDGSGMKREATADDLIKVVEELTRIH
T1 sequence (O95785 whole entry): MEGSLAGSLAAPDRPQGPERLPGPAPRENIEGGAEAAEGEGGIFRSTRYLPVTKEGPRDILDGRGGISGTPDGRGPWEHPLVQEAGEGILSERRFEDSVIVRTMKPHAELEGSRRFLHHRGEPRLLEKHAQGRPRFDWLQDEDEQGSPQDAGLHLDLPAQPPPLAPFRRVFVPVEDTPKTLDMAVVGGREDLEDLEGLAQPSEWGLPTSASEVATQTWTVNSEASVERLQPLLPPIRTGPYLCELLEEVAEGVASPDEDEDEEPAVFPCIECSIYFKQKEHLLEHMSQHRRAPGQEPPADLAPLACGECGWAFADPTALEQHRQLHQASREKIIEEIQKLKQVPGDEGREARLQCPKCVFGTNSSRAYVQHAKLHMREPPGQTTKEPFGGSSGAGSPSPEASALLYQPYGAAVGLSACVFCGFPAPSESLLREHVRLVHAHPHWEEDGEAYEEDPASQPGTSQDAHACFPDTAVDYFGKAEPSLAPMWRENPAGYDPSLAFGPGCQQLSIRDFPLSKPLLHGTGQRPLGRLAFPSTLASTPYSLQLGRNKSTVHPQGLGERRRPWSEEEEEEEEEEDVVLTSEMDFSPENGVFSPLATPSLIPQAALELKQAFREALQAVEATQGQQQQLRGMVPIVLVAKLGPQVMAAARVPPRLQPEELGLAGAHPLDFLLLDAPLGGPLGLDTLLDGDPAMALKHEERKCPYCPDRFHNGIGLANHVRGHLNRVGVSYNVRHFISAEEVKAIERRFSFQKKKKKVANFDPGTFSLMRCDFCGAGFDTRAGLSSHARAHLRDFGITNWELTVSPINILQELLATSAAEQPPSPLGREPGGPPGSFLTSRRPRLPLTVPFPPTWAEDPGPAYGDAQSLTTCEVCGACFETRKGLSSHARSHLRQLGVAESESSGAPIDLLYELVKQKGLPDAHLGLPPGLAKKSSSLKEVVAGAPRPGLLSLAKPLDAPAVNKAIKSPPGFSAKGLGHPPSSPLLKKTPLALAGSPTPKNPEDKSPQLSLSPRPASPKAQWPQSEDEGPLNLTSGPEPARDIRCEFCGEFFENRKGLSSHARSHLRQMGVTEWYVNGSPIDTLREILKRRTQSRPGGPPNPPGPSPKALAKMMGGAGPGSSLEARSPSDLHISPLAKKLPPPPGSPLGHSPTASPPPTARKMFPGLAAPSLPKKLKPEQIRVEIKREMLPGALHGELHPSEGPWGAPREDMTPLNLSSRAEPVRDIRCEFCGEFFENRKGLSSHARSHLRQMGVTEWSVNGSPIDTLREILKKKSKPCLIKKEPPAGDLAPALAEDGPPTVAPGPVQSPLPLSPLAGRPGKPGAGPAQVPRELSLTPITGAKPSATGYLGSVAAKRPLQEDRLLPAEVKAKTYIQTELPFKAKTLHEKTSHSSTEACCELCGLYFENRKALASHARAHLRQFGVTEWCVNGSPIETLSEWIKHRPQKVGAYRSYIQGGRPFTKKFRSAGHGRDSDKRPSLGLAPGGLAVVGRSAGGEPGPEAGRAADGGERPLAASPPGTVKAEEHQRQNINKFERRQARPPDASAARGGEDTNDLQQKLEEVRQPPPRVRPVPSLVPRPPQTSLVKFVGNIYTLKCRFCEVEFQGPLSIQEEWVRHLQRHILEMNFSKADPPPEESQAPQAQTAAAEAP
T1 sequence (Q96SW2 whole entry): as the sequence (Q96SW2 whole entry) above
T1 sequence (Q16531 whole entry partner): as the sequence (Q16531 whole entry partner) above

| SMILES | DC50 (WIZ) [nM] | DC50 (ZBTB7A) [nM] | HBF AUC (HbF) |
| --- | --- | --- | --- |
| Cc1cc(-c2cc3c(cc2Nc2cccc4c2C(=O)N([C@H]2CCC(=O)NC2=O)C4=O)N(C)[C@@H](C)CO3)ccn1 [Compound 4, 4-(((S)-3,4-dimethyl-7-(2-methylpyridin-4-yl)-3,4-dihydro-2H-benzo[b][1,4]oxazin-6-yl)amino)-2-((S)-2,6-dioxopiperidin-3-yl)isoindoline-1,3-dione] | 83 | 26 | +++ (+++ = AUC ≥ 150) |
| Cc1cc(-c2cc3c(cc2Nc2cccc4c2C(=O)N(C2CCC(=O)NC2=O)C4=O)N(C)C(=O)OC3)cc(C)n1 (stereo not drawn) [Compound 62, 4-((6-(2,6-dimethylpyridin-4-yl)-1-methyl-2-oxo-1,4-dihydro-2H-benzo[d][1,3]oxazin-7-yl)amino)-2-(2,6-dioxopiperidin-3-yl)isoindoline-1,3-dione] | 17 | 19 | ++ (++ = 100 ≤ AUC < 150) |
| COc1nccc(-c2cc3c(cc2Nc2cccc4c2C(=O)N([C@H]2CCC(=O)NC2=O)C4=O)N(C)C(=O)CO3)c1F [Compound 34, (S)-2-(2,6-dioxopiperidin-3-yl)-4-((7-(3-fluoro-2-methoxypyridin-4-yl)-4-methyl-3-oxo-3,4-dihydro-2H-benzo[b][1,4]oxazin-6-yl)amino)isoindoline-1,3-dione] | 11 | 11 | +++ (+++ = AUC ≥ 150) |
| CCN1C(=O)COc2cc(-c3ccnc(C)c3)c(Nc3cccc4c3C(=O)N([C@H]3CCC(=O)NC3=O)C4=O)cc21 [Compound 25, (S)-2-(2,6-dioxopiperidin-3-yl)-4-((4-ethyl-7-(2-methylpyridin-4-yl)-3-oxo-3,4-dihydro-2H-benzo[b][1,4]oxazin-6-yl)amino)isoindoline-1,3-dione] | 18 | 24 | + (+ = 15 ≤ AUC < 100) |
| COc1nccc(-c2cc3c(cc2Nc2cccc4c2C(=O)N([C@H]2CCC(=O)NC2=O)C4=O)N(C)C(=O)[C@@H](C)O3)c1F [Compound 36, 2-((S)-2,6-dioxopiperidin-3-yl)-4-(((R)-7-(3-fluoro-2-methoxypyridin-4-yl)-2,4-dimethyl-3-oxo-3,4-dihydro-2H-benzo[b][1,4]oxazin-6-yl)amino)isoindoline-1,3-dione] | 15 | 19 | + (+ = 15 ≤ AUC < 100) |
| CCN1C(=O)CCc2cc(-c3ccnc(C)c3)c(Nc3cccc4c3C(=O)N([C@H]3CCC(=O)NC3=O)C4=O)cc21 [Compound 89, (S)-2-(2,6-dioxopiperidin-3-yl)-4-((1-ethyl-6-(2-methylpyridin-4-yl)-2-oxo-1,2,3,4-tetrahydroquinolin-7-yl)amino)isoindoline-1,3-dione] | 14 | 13 | + (+ = 15 ≤ AUC < 100) |
| Cc1cc(-c2cc3c(cc2Nc2cccc4c2C(=O)N(C2CCC(=O)NC2=O)C4=O)N(C)C(=O)CO3)ccn1 (stereo not drawn) [Compound 2, 2-(2,6-dioxopiperidin-3-yl)-4-((4-methyl-7-(2-methylpyridin-4-yl)-3-oxo-3,4-dihydro-2H-benzo[b][1,4]oxazin-6-yl)amino)isoindoline-1,3-dione] | 6 | 11 | +++ (+++ = AUC ≥ 150) |
| CNc1cc(-c2cc3c(cc2Nc2cccc4c2C(=O)N(C2CCC(=O)NC2=O)C4=O)N(C)C(=O)CO3)ccn1 (stereo not drawn) [Compound 14, 2-(2,6-dioxopiperidin-3-yl)-4-((4-methyl-7-(2-(methylamino)pyridin-4-yl)-3-oxo-3,4-dihydro-2H-benzo[b][1,4]oxazin-6-yl)amino)isoindoline-1,3-dione] | 12 | 17 | + (+ = 15 ≤ AUC < 100) |
| C=CN1C(=O)CCc2cc(-c3ccnc(C)c3)c(Nc3cccc4c3C(=O)N(C3CCC(=O)NC3=O)C4=O)cc21 (stereo not drawn) [Compound 94, 2-(2,6-dioxopiperidin-3-yl)-4-((6-(2-methylpyridin-4-yl)-2-oxo-1-vinyl-1,2,3,4-tetrahydroquinolin-7-yl)amino)isoindoline-1,3-dione] | 17 | 28 | + (+ = 15 ≤ AUC < 100) |
| Cc1cc(-c2cc3c(cc2Nc2cccc4c2C(=O)N([C@@H]2CCC(=O)NC2=O)C4=O)N(C)C(=O)CO3)c(F)cn1 [Compound 58, (R)-2-(2,6-dioxopiperidin-3-yl)-4-((7-(5-fluoro-2-methylpyridin-4-yl)-4-methyl-3-oxo-3,4-dihydro-2H-benzo[b][1,4]oxazin-6-yl)amino)isoindoline-1,3-dione] | 9 | 10 | ++ (++ = 100 ≤ AUC < 150) |
| CC(=O)N1CCC(c2cc3c(cc2Nc2cccc4c2C(=O)N([C@H]2CCC(=O)NC2=O)C4=O)N(C)C(=O)OC3C)CC1 (stereo partly drawn) [Compound 75, 4-((6-(1-acetylpiperidin-4-yl)-1,4-dimethyl-2-oxo-1,4-dihydro-2H-benzo[d][1,3]oxazin-7-yl)amino)-2-((S)-2,6-dioxopiperidin-3-yl)isoindoline-1,3-dione] | 37 | 75 | ++ (++ = 100 ≤ AUC < 150) |

The remaining compounds from weak to strong by DC50 (WIZ), led by results:

| DC50 (WIZ) [nM] | DC50 (ZBTB7A) [nM] | SMILES | HBF AUC (HbF) |
| --- | --- | --- | --- |
| 89 | 256 | Cc1cc(-c2nc3c(cc2Nc2cccc4c2C(=O)N([C@H]2CCC(=O)NC2=O)C4=O)N(C)C(=O)CC3)ccn1 [Compound 95, (S)-2-(2,6-dioxopiperidin-3-yl)-4-((5-methyl-2-(2-methylpyridin-4-yl)-6-oxo-5,6,7,8-tetrahydro-1,5-naphthyridin-3-yl)amino)isoindoline-1,3-dione] | + (+ = 15 ≤ AUC < 100) |
| 17 | 12 | Cc1cc(-c2cc3c(cc2Nc2cccc4c2C(=O)N([C@H]2CCC(=O)NC2=O)C4=O)N(C)C(=O)O[C@@H]3C)ccn1 [Compound 21, 4-(((R)-1,4-dimethyl-6-(2-methylpyridin-4-yl)-2-oxo-1,4-dihydro-2H-benzo[d][1,3]oxazin-7-yl)amino)-2-((S)-2,6-dioxopiperidin-3-yl)isoindoline-1,3-dione] | + (+ = 15 ≤ AUC < 100) |
| 15 | 19 | Cc1cc(-c2cc3c(cc2Nc2cccc4c2C(=O)N([C@H]2CCC(=O)NC2=O)C4=O)N(C)C(=O)[C@H](C)O3)ccn1 [Compound 5, 4-(((S)-2,4-dimethyl-7-(2-methylpyridin-4-yl)-3-oxo-3,4-dihydro-2H-benzo[b][1,4]oxazin-6-yl)amino)-2-((S)-2,6-dioxopiperidin-3-yl)isoindoline-1,3-dione] | + (+ = 15 ≤ AUC < 100) |
| 11 | 19 | COc1cc(-c2cc3c(cc2Nc2cccc4c2C(=O)N([C@H]2CCC(=O)NC2=O)C4=O)N(C)C(=O)[C@@H](C)O3)c(F)cn1 [Compound 30, 2-((S)-2,6-dioxopiperidin-3-yl)-4-(((R)-7-(5-fluoro-2-methoxypyridin-4-yl)-2,4-dimethyl-3-oxo-3,4-dihydro-2H-benzo[b][1,4]oxazin-6-yl)amino)isoindoline-1,3-dione] | ++ (++ = 100 ≤ AUC < 150) |
| 11 | 15 | Cc1cc(-c2cc3c(cc2Nc2cccc4c2C(=O)N([C@H]2CCC(=O)NC2=O)C4=O)N(C)C(=O)[C@H](C)O3)cc(C)n1 [Compound 23, 4-(((S)-7-(2,6-dimethylpyridin-4-yl)-2,4-dimethyl-3-oxo-3,4-dihydro-2H-benzo[b][1,4]oxazin-6-yl)amino)-2-((S)-2,6-dioxopiperidin-3-yl)isoindoline-1,3-dione] | ++ (++ = 100 ≤ AUC < 150) |
| 11 | 13 | Cc1cc(-c2cc3c(cc2Nc2cccc4c2C(=O)N(C2CCC(=O)NC2=O)C4=O)N(C)C(=O)CC3C)ccn1 (stereo not drawn) [Compound 96, 4-((1,4-dimethyl-6-(2-methylpyridin-4-yl)-2-oxo-1,2,3,4-tetrahydroquinolin-7-yl)amino)-2-(2,6-dioxopiperidin-3-yl)isoindoline-1,3-dione] | ++ (++ = 100 ≤ AUC < 150) |
| 7 | 22 | CN(C)c1cc(-c2cc3c(cc2Nc2cccc4c2C(=O)N(C2CCC(=O)NC2=O)C4=O)N(C)C(=O)CO3)ccn1 (stereo not drawn) [Compound 15, 4-((7-(2-(dimethylamino)pyridin-4-yl)-4-methyl-3-oxo-3,4-dihydro-2H-benzo[b][1,4]oxazin-6-yl)amino)-2-(2,6-dioxopiperidin-3-yl)isoindoline-1,3-dione] | + (+ = 15 ≤ AUC < 100) |
| 6 | 9 | CCO[C@H]1CC[C@H](c2cc3c(cc2Nc2cccc4c2C(=O)N([C@@H]2CCC(=O)NC2=O)C4=O)N(C)C(=O)[C@H](C)O3)CC1 [Compound 55, 2-((R)-2,6-dioxopiperidin-3-yl)-4-(((S)-7-((1r,4S)-4-ethoxycyclohexyl)-2,4-dimethyl-3-oxo-3,4-dihydro-2H-benzo[b][1,4]oxazin-6-yl)amino)isoindoline-1,3-dione] | ++ (++ = 100 ≤ AUC < 150) |
